{"source": "patent US20260132160A1", "about": "“IRON REPLACEMENT TREATMENTS” (The General Hospital Corporation, priority 2022, published 2026)", "key": {"apo-transferrin": {"molecular_target": "apo-transferrin (Homo sapiens, UniProt P02787)", "sequence (P02787 20-698)": "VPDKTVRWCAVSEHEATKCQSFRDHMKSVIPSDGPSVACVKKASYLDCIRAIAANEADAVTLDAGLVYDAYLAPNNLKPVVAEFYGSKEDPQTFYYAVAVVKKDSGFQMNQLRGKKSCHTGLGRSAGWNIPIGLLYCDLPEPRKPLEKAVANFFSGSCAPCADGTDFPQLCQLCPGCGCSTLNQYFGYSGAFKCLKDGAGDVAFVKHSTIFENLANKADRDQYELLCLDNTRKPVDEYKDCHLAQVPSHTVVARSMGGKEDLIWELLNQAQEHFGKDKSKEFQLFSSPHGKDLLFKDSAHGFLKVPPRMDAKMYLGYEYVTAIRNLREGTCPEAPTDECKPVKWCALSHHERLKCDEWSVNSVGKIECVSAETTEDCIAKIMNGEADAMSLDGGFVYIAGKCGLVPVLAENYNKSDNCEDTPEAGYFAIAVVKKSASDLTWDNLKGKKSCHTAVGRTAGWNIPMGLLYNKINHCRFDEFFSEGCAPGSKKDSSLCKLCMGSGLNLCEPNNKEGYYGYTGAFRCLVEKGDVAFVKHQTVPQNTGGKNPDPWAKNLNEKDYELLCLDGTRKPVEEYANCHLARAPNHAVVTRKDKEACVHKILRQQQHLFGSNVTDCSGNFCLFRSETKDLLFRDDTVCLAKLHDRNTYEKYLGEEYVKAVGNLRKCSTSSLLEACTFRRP", "experiment": "Time course of Fe3+ transfer to apo-transferrin (fluorescence at 330 nm)", "type": "biochemical", "details": "40 μM Fe-BBG, 20 μM apo-transferrin, pH 7.4; instrument temporal resolution 6 s", "experimental": "FIG. 5 plots the time course of Fe^3+ transfer of Fe-BBG to transferrin. The reaction was monitored through the quenching of apo-transferrin intrinsic fluorescence (conditions: 40 μM Fe-BBG, 20 μM apo-transferrin, 50 mM HEPES buffer supplemented with 25 mM HCO3, pH 7.4; 25° C. λEx=280 nm.). Fe^3+ transfer from Fe-BBG to apo-transferrin was complete within 6 s. The temporal resolution of the instrument is 6 s, and the reaction is too fast for us to quantify kinetics."}, "normal male C57BL/6 mice": {"test_system": "normal male C57BL/6 mice", "experiment": "Serum nonheme iron parameters after i.v. injection (ferrozine assay)", "type": "in vivo, mouse", "experimental": "The in vivo efficacy of Fe-BBG as a direct-to-transferrin Fe replacement drug was preliminary evaluated in normal male C57BL/6mice. Mice received either 0.01 mmol Fe-BBG/kg (0.56 μg Fe per g body weight), 0.1 mmol Fe-BBG/kg (5.6 μg Fe per g body weight), or placebo (saline vehicle) via tail vein injection and were euthanized either 5 min, 60 min or 100 min post-injection. Serum nonheme iron parameters were then quantified using the spectrophotometric ferrozine assay.\nFIG. 9 compares serum iron, total iron binding capacibity (TIBC), and unbound iron binding capacity (UIBC), recorded in mice treated with placebo and in serum harvested either 5 min, 60 min, or 100 min after Fe-BBG injection. The percentage transferrin saturation (% TSAT) was calculated at the 60 min and 100 min time points, at which point Fe-BBG and the BBG ligand remaining after trans-chelation with apo-transferrin had diminished to levels that will not interfere with the spectrophotometric assay."}, "[1]": {"experiment": "Labile iron in serum after i.v. injection (dihydrorhodamine 123 oxidation)", "type": "in vivo, mouse", "experimental": "These are the same serum samples as in FIG. 9. The assay was performed as described in Blood 2003, 102 (7), 2670-2677.\nTo quantify labile iron released by Fe-BBG after intravenous injection, male C57BL/6 mice received either 0.01 mmol Fe-BBG/kg (0.56 μg Fe per g body weight), 0.1 mmol Fe-BBG/kg (5.6 μg Fe per g body weight), or placebo (saline vehicle) via tail vein injection and were euthanized either 5 min, 60 min or 100 min post-injection. Blood serum was harvested and labile Fe in each sample quantified by spectrophotometrically monitoring the rate of dihydrorhodamine 123 oxidation under redox forcing conditions, as reported in Blood 2003, 102 (7), 2670-2677 and described below:\nQuadruplicates of 20 μL serum were transferred to clear-bottom 96-well plates. To 2 of the wells was added 180 μL iron-free HEPES buffered saline (HBS) (preincubated at 37° C.) containing 40 μM ascorbate and 50 µM dihydrorhodamine 123 (DHR). […] The kinetics of fluorescence increase were followed at 37° C. in a Molecular Devices FlexStation 3 microplate reader with 485/538 nm excitation/emission filter pair, for 40 minutes, with readings every 2 minutes. The slopes (R) of DHR fluorescence intensity with time were calculated from measurements taken between 16 and 40 minutes and are given as FU·minute^−1 (fluorescence units per minute). […]"}, "Tmprss6 knockout mice": {"test_system": "Tmprss6 knockout mice", "experiment": "Tolerability after repeat dosing (clinical chemistry, liver qPCR)", "type": "in vivo, mouse", "experimental": "Tmprss6 knockout mice received 29 intraperitoneal injections each containing 25 μg Fe as Fe-BBG (1.3±0.18 μg Fe per gram body weight, N=5 mice, 2 male, 3 female) or containing saline (placebo, N=5 mice, 2 male, 3 female) over 15 days. The cumulative dose of Fe was 725 μg Fe (37±0.53 μg Fe per gram body weight). The mice were euthanized 120 min after the final injection. Blood was harvested for measurement of complete blood counts, and nonheme Fe parameters. Bone marrow and liver tissue were analyzed by qPCR for expression of genes related to erythropoietic activity, Fe exposure, oxidative stress, and inflammation, the data are tabulated in FIG. 15. Clinical chemistry was also recorded, see Example 16 below. FIG. 15 data are shown as mean±standard deviation. Statistical differences between groups were determined by two-tailed Student's t-test for normally distributed values or Mann-Whitney (/test for non-normally distributed values. Significant differences are indicated by *P<0.05, **P<0.01, ****P<0.0001.\nFIG. 16 data are shown as mean±standard deviation. Statistical differences between groups were determined by two-tailed Student's t-test for normally distributed values or Mann-Whitney U test for non-normally distributed values. Significant differences are indicated by *P<0.05, **P<0.01, ***P<0.001, ****P<0.0001."}, "[2]": {"details": "0.56 or 5.6 μg Fe per g i.v., 5, 60, 100 min, vs placebo"}}, "note": "Entries after “also recorded” stand apart in the source; their conditions may differ.", "data": [{"smiles": "O.O.O=C([O-])CC[C@H]1C(=O)[O][Fe]2[O]c3ccccc3CN1Cc1ccccc1[O]2", "note": "[Fe-BBG]", "values": [{"measurement": "time to complete Fe^3+ transfer to apo-transferrin", "setting": "apo-transferrin", "result": "≤ 6", "unit": "s"}, {"measurement": "serum iron", "setting": "normal male C57BL/6 mice; [2]", "result": "rapidly raises"}, {"measurement": "total iron binding capacity (TIBC)", "setting": "normal male C57BL/6 mice; [2]", "result": "rapidly raises; also recorded: does not decrease"}, {"measurement": "unbound iron binding capacity (UIBC)", "setting": "normal male C57BL/6 mice; 0.56 or 5.6 μg Fe per g i.v., vs placebo", "result": "does not reduce UIBC significantly"}, {"measurement": "percentage transferrin saturation (% TSAT)", "setting": "normal male C57BL/6 mice; 60 and 100 min, vs placebo", "result": "elevates % TSAT significantly"}, {"measurement": "total serum nonheme Fe relative to placebo treated mice", "setting": "normal male C57BL/6 mice; 5 min after 5.6 μg Fe/g", "result": 25, "unit": "fold"}, {"measurement": "labile iron release in vivo", "setting": "[1]; 0.56 or 5.6 μg Fe per g, 5, 60, 100 min", "result": "does not contribute detectable quantities of labile Fe; also recorded: does not release labile iron in vivo"}, {"measurement": "labile Fe concentration in serum", "setting": "[1]; 5 min after injection of 5.6 μg Fe/g", "result": "< 0.2", "unit": "µM"}, {"measurement": "oxidative stress", "setting": "Tmprss6 knockout mice; from Hmox1, Gclc, NqoI taken together", "result": "did not result in oxidative stress"}, {"measurement": "Serum amyloid A1 (SaaI) expression", "setting": "Tmprss6 knockout mice; qPCR, marker of inflammation, repeat dosing", "result": "unchanged"}, {"measurement": "liver NAD (P) H quinone dehydrogenase 1 (NqoI) expression", "setting": "Tmprss6 knockout mice; qPCR, repeat dosing", "result": "did not trigger upregulation"}, {"measurement": "liver glutamate-cysteine ligase catalytic subunit (Gclc) expression", "setting": "Tmprss6 knockout mice; qPCR, repeat dosing", "result": "did not trigger upregulation"}, {"measurement": "liver heme oxygenase 1 (Hmox1) expression", "setting": "Tmprss6 knockout mice; qPCR, repeat dosing", "result": "did not trigger upregulation"}, {"measurement": "clinical chemistry parameters", "setting": "Tmprss6 knockout mice; repeat dosing, vs placebo", "result": "did not generate significant differences"}]}]}
